The conditions of data set [1]: cited from earlier work.
The nature of data set [2]: Permeability and efflux ratio of saquinavir across Caco-2 cell monolayers. The conditions noted are these: human, pH 7.4, Caco-2 monolayer. The class given is in vitro ADME. Here is the method:
Caco-2 cells (ATCC, Manassas, Va.) were kindly provided by Dr. Gunaje Jayarama (Department of Pharmaceutical Sciences, South Dakota State University, Brookings, S. Dak.) at passage #4. Cells were seeded at 1×10^6 cells onto […]®polyester filter membranes (pore size 0.4 um, growth area 4.67 cm^2) in 6 welled sterile plates ([…]®, Corning Costar Corp., Cambridge, Mass.). The cells were grown in DMEM (4.5 g/L glucose) medium supplemented with 20% FBS, 1% non-essential amino acids, I % L-glutamine, streptomycin (100 μg/ml) and penicillin (100 IU/ml). The cultures were maintained in an atmosphere of 5% CO2 and 95% air, and 95% relative humidity at 37° C. (CO2 incubator, Galaxy 170S). The growth medium was changed every day in the first two weeks followed by three times a week until time of use. When reaching confluency, cells were trypsinized and passage numbers 25-35 were used in the experiments. The cells were allowed to differentiate in the […]® filter membrane during 3 weeks in complete growth medium.
The permeability of saquinavir and saquinavir loaded ZLF nanoparticles were studied across Caco-2 cell monolayers in an absorptive direction apical to basolateral (AP-BL) or secretory direction basolateral to apical (BL-AP). Before the permeability experiments, the cell monolayers were rinsed twice with HBSS, pH 7.4, and equilibrated under experimental conditions for 20 min. Then, the apical fluid was replaced by 1.5 ml of experimental solution. Transepithelial electrical resistance (TEER) was measured using an EVOM meter (World Precision Instruments, Inc., Sarasota, Fla.) to ensure monolayer confluence and integrity. TEER was calculated as follows: […]
Where R(Ω) is the measured resistance and A is the surface area (cm^2). […] Results are expressed as apparent permeability coefficient (Papp), calculated according to: […]
Saquinavir content after extraction was analyzed in the samples using the HPLC as recited herein. […]
The ratio of effective permeability for saquinavir or efflux ratio was calculated as follows: […]
Background: Caco-2 monolayers are a common model of the intestinal barrier.

For data set [3] the following is noted: background statement; cited from earlier work.

Consider 2 molecules from patent US20150150822A1, “NOVEL CORE-SHELL NANOPARTICLES FOR ORAL DRUG DELIVERY” (South Dakota State University, priority 2013, published 2015).

Broadly, the Log P is a log measure of how a compound divides between an organic and an aqueous phase. Broadly, the efflux ratio is the permeability from basolateral to apical divided by that in the opposite direction, in the common usage. Broadly, the Papp A→B is how fast a substance crosses the layer from the apical side. In general, Papp B→A refers to the apparent permeability from the basolateral to the apical side of a cell layer.

As for `CC1=C(/C=C/C(C)=C/C=C/C(C)=C/CO)C(C)(C)CCC1` [Retinol], in data set [1], the “Log P” value is on record as 6.2 and the solubility in water entry is “practically insoluble in water”.
In the case of `CC(C)(C)NC(=O)[C@@H]1C[C@@H]2CCCC[C@@H]2CN1C[C@@H](O)[C@H](Cc1ccccc1)NC(=O)[C@H](CC(N)=O)NC(=O)c1ccc2ccccc2n1` [Saquinavir], in data set [2] (Papp B-A/Papp A-B), the efflux ratio at 3 h, 20 μM amounted to 16.7. Moreover, in data set [2] (apical to basolateral, free saquinavir at 20 μM), the Papp A→B at 3 h, 20 μM stood at 0.85 ± 0.21 ×10⁻⁶ cm/s. Also, in data set [2] (basolateral to apical, free saquinavir at 20 μM), the Papp B→A at 3 h, 20 μM came out at 14.2 ± 5.3 ×10⁻⁶ cm/s. Besides, the bioavailability in data set [3] was 0.7-4%.
